From patent publication US6534075B1, “Antimicrobial and antiviral compositions and treatments for food surfaces” (Ecolab Inc., priority 1999, dated 2003)
Like-named read-outs stand apart in the source and are kept apart here. Marks after values point to notes of the source that are not given here.

Assays:
[1] = test system: Feline parvovirus; conditions: published results against Feline parvovirus, cited from earlier work
[2] = test system: S. aureus; assay: Log reduction of S. aureus by liquid compositions, 30 second contact (Table 5); format: cell-based; conditions: N-source:H2O2:KI 0:300:0 ppm, pH 5, 30 second contact
Source text: (§1) Results recorded include the pH of the solution, the color of the solution and the log reduction in microbe. In Table 4, E. coli is used in all examples, while a variety of organisms (gram positive and gram negative bacteria, a yeast, a mold) are used in Table 5.

[3] = test system: P. expansum; assay: Log reduction of P. expansum by liquid compositions, 15 minute contact (Table 5); format: cell-based
Source text: as §1

[4] = test system: E. coli; assay: Log reduction of E. coli by liquid compositions, 30 second contact (Tables 4, 5); format: cell-based; conditions: for Log Reduction: E. coli; for E. Coli Log Reduction: single component alone, pH 3, 30 second contact time, vs untreated control
Source text: Results recorded include the pH of the solution, the color of the solution and the log reduction in microbe. In Table 4, E. coli is used in all examples, while a variety of organisms (gram positive and gram negative bacteria, a yeast, a mold) are used in Table 5. [table] [table]

[5] = test system: E. coli ATCC 11229; assay: Food-preparation hard surface sanitizing comparison, E. coli (Table 12); format: cell-based; conditions: actives conc. 300 ppm; 30 second exposure
Source text: (§2) Table 12 compares formulas of the present invention with prior art examples of food-preparation hard surface sanitizing. […] [table]

[6] = test system: Z. bailii; assay: Log reduction of Z. bailii by liquid compositions, 30 second contact (Table 5); format: cell-based
[7] = test system: S. aureus; assay: Food-preparation hard surface sanitizing comparison, S. aureus (Table 12); format: cell-based; conditions: actives conc. 300 ppm
Source text: as §2

[8] = test system: S. javiana; assay: Microbial reduction on Roma tomato surfaces, five minute submersion (Table 6); conditions: tomatoes submerged five minutes at 72° F., versus untreated control
Description: Specifically, comparison is made to the use of either sodium hypochlorite (bleach), hydrogen peroxide or peracetic acid.
Testing was performed on commercial Roma tomato surfaces using the test organism Salmonella javinia. For the pathogenic organisms, a 1:10 dilution of a 10^7 CFU/ml (colony forming units per ml) test system suspension was prepared. Whole tomatoes were placed into a plastic bag, and each bag was inoculated with a 10-mil. test system suspension, resulting in an inoculum level of […]. Bags are gently shaken for even distribution of the test system for five minutes. The produce types are then stored overnight at 4° C. Untreated controls were also prepared. Two-liter volumes of the test solutions were prepared in 4-liter beakers. Solutions were prepared in laboratory tap water to simulate industry conditions. The tomatoes were then exposed to the test solution by submersion for five minutes at 72° F. (about 22° C.). At the end of that time, the tomatoes were removed from the solution and thoroughly rinsed under fresh-running tap water. Fifty grams of the home produce (tomato), plus 100 ml buffered dilution water were placed into a stomacher bag. The tomatoes were massaged for 60 seconds. […] on TGE (Salmonella). Plates were incubated at 35° C. for 48 hours.

[9] = test system: Total bacterial flora; assay: Meat carcass treatment, prerigor beef surfaces (Table 7); conditions: active antimicrobial 1000 ppm; carcass treated 30 seconds, drained 10 minutes
Description: Working Example 5 is similar to the previous example in that comparisons are made between the present invention and known commercial compositions for control of microorganisms on food surfaces. In this case, however, comparisons were made for meat carcass treatments.
Testing was performed on prerigor beef surfaces from a packing house. Total bacterial flora were tested. The carcasses were treated for 30 seconds and drained for 10 minutes. Test samples were isolated and plated for total […].

[10] = N-source:H2O2:KI 300:0:0 ppm, pH 7, 30 second contact

Compound: CCO [Ethanol]
- Minimum Concentration (for 10-minute inactivation) [1]: 500,000 ppm

Compound: OO [Formula H2O2, hydrogen peroxide]
- Log Reduction [2]: 0.4 log
- Log Reduction ([3]; N-source:H2O2:KI 0:532:0 ppm, pH 5, 15 minute contact): 0.0* log
- Log Reduction ([4]; N-source:H2O2:KI 0:300:0 ppm, pH 5, 30 second contact): 0.2 log
- E. Coli Log Reduction [4]: 0.2 log
- Log Reduction E. coli [5]: 0.2 log
- Log Reduction ([6]; N-source:H2O2:KI 0:532:0 ppm, pH 3, 30 second contact): 0.1 log
- Log Reduction ([6]; N-source:H2O2:KI 0:532:0 ppm, pH 5, 30 second contact): 0.1 log
- Log Reduction ([6]; N-source:H2O2:KI 0:532:0 ppm, pH 7, 30 second contact): 0.1 log
- Log Reduction S. aureus [7]: 0.4 log
- Log Reduction ([8]; active antimicrobial 80 ppm): <0.1 log

Compound: O=CCCCC=O [Glutaraldehyde]
- Outcome noted in parentheses at the listed concentration ([1]; 10-minute inactivation): 2-log
- Minimum Concentration (for 10-minute inactivation) ([1]; unit not given): 10,000

Compound: CC(C)O [IPA]
- Minimum Concentration (for 10-minute inactivation) [1]: 500,000 ppm

Compound: [I-].[K+] [KI, potassium iodide]
- Log Reduction ([3]; N-source:H2O2:KI 0:0:500 ppm, pH 5, 15 minute contact): 0.0* log
- E. Coli Log Reduction [4]: 0 log

Compound: CCCCCCCCCCCCCCCC[n+]1ccccc1 [cetyl pyridinium chloride]
- Log Reduction [9]: 0.5 log

Compound: C[N+](C)(C)CCO.[Cl-] [choline chloride]
- Log Reduction [4, 10]: 0.0 log
- E. Coli Log Reduction [4]: 0 log
- Log Reduction [6, 10]: 0.0 log

Compound: CCCCCCCCCC[N+](C)(C)CCCCCCCCCC.[Cl-] [didecyl dimethyl ammonium chloride]
- Log Reduction ([3]; N-source:H2O2:KI 100:0:0 ppm, pH 7, 15 minute contact): 1.0* log
- Log Reduction ([6]; N-source:H2O2:KI 20:0:0 ppm, pH 3, 30 second contact): 0.1 log

Compound: Oc1ccccc1-c1ccccc1 [o-phenylphenol G]
- Minimum Concentration (for 10-minute inactivation) [1]: 100,000 ppm

Compound: CC(=O)OO [peracetic acid]
- Log Reduction ([8]; active antimicrobial 80 ppm): 2.8 log

Compound: OCl [sodium hypochlorite]
- Minimum Concentration (for 10-minute inactivation) [1]: 2,000 ppm
- Log Reduction ([8]; active antimicrobial 30 ppm): 0.3 log
- Log Reduction ([8]; active antimicrobial 80 ppm): 1.9 log

Compound: lecithin
- E. Coli Log Reduction [4]: 0 log
